Entries after “also recorded” stand apart in the source; their conditions may differ.
Columns and labels:
[1] = system: Staphylococcus aureus ATCC 6538; experiment: Antibiotic disc assay (zones of inhibition), S. aureus; type: cell-based
Method: (§1) Erwinia sp. #351 was from Presque Isle Cultures, Presque Isle, Pa. Lactobacillus fermentum ATCC 14931, zygosaccharomyces bailii ATCC 60483 and E. coli ATCC 25922 (National Committee on Clinical Laboratory Standards antibiotic test strain) were from the American Type Culture Collection, Manassas, Va. Staphylococcus aureus ATCC 6538 and Enterococcus faecalis Bact. 4025 were obtained from the UW-Madison Department of Bacteriology culture collection. All bacteria except for L. fermentum were grown statically in screwcap tubes containing 10 ml Trypticase Soy Broth (BBL, Cockeysville, Md.) for 20-22 hours at 30° C. L. fermentum was grown statically in screwcap tubes containing 10 ml MRS broth (Difco) for 20-22 hours at 30° C. Cultures of Z. bailii were grown in 125 ml culture flasks containing 50 ml YM broth (Difco) on a rotary shaker set at 200 rpm for 20-22 hours at 25° C.
(§2) The activity of terpenoid compounds toward facilitating susceptibility to antibiotics was assessed using an antibiotic disc assay. For this assay, cells from an overnight growth were suspended to a known concentration in 0.5 ml 67 mM phosphate buffer, pH 7.0 and mixed with 4.5 ml 0.7% Iso-Sensitest agar (Oxoid, Basingstoke, Hampshire, England) overlay tempered to 50° C. Terpenoid compounds dissolved in absolute ethanol were added to the cell/agar overlay mixture yielding final concentrations of 0.5, 1.0 or 2.0 mM, depending on the experiment. The final concentration of ethanol in cell overlays was 0.5% and the final concentration of target cells was ca. 10^6 cfu/ml. After thorough vortexing, terpenoid-containing cell overlays were poured over hardened Iso-Sensitest agar (2% agar) plates and allowed to set. […] After incubation, zones of inhibition were measured with a ruler from the bottom of the plates.

[2] = system: Enterococcus faecalis Bact. 4025; type: cell-based; conditions: E. faecalis
Method: as §1, §2

E. coli ATCC 25922 = experiment: Plating assay, nerolidol enhancing polymyxin B activity against E. coli; type: cell-based, Escherichia coli; conditions: 1 mM nerolidol plus 10 ppm polymyxin B, up to 30 minutes at 37° C.
Method: as §1, with “25° C. […]” for “25° C.”
Cell suspensions (1.7×10^7 cfu/ml in 67 mM phosphate buffer, pH 7.0) were treated as shown and incubated for up to 30 minutes at 37° C. Cell viability was determined at appropriate intervals by pour plating with Trypticase Soy agar tempered to 50° C.

[3] = system: Lactobacillus fermentum ATCC 14931; experiment: Flow cytometry, uptake of ethidium bromide by L. fermentum; type: cell-based; conditions: 15 μM ethidium bromide
Method: (§3) Erwinia sp. #351 was from Presque Isle Cultures, Presque Isle, Pa. Lactobacillus fermentum ATCC 14931, zygosaccharomyces bailii ATCC 60483 and E. coli ATCC 25922 (National Committee on Clinical Laboratory Standards antibiotic test strain) were from the American Type Culture Collection, Manassas, Va. Staphylococcus aureus ATCC 6538 and Enterococcus faecalis Bact. 4025 were obtained from the UW-Madison Department of Bacteriology culture collection. All bacteria except for L. fermentum were grown statically in screwcap tubes containing 10 ml Trypticase Soy Broth (BBL, Cockeysville, Md.) for 20-22 hours at 30° C. L. fermentum was grown statically in screwcap tubes containing 10 ml MRS broth (Difco) for 20-22 hours at 30° C. Cultures of Z. bailii were grown in 125 ml culture flasks containing 50 ml YM broth (Difco) on a rotary shaker set at 200 rpm for 20-22 hours at 25° C. For experiments involving flow cytometry, overnight cultures of Erwinia sp., L. fermentum and Z. bailli were set to a concentration of ca. 10^7 cfu/ml in 67 mM phosphate buffer, pH 7.0 (filtered, 0.2 μm). For the examination of sesquiterpenoids, cell suspensions containing either 0.5% ethanol and 15 μM ethidium bromide or 0.5 mM apritone, bisabolol, nerolidol or farnesol dissolved in ethanol (0.5% ethanol, final concentration) and 15 μM ethidium bromide were incubated for 40 minutes at room temperature. After incubation, cell suspensions were diluted 1:10 in 67 mM phosphate buffer, pH 7.0 (filtered, 0.2 μm) and examined using a FACScan flow cytometer (Becton Dickinson and Company, Cockeysville, Md.). Data were collected in logarithmic mode on forward scatter, side scatter and fluorescence characteristics of the cells.

[4] = system: zygosaccharomyces bailii ATCC 60483; experiment: Flow cytometry, uptake of ethidium bromide by Z. bailii; type: cell-based; conditions: 0.5 mM sesquiterpenoid, 15 μM ethidium bromide, 40 minutes
Method: as §3

C=CC(C)(O)CCC=C(C)CCC=C(C)C (stereo not shown) [nerolidol]
ability to sensitize S. aureus to ciprofloxacin ([1]; 0.5 mM terpenoid, ciprofloxacin 5 μg disc): most effective | sensitization to six different antibiotics ([1]; disc diffusion, 0.5-2 mM sesquiterpenoid): readily sensitized | zone size, ciprofloxacin 5 μg disc ([1]; terpenoid at 0.5 mM in agar overlay, ciprofloxacin 5 μg disc): 27.5 mm | zones smaller than control plates by ([2]; clindamycin 2 μg disc, 1 mM sesquiterpenoid): 1 mm | degree of sensitization to antibiotics ([2]; disc diffusion, 1 mM sesquiterpenoid): only a modest degree of sensitization | enhancement of inhibition zone size ([2]; nerolidol 1 mM combined with gentamicin 10 μg disc): almost two-fold enhancement | susceptibility of E. coli to polymyxin B (cell viability, cfu/ml) (E. coli ATCC 25922): dramatic increase in the susceptibility; also recorded: synergistic effect | time to substantial uptake of ethidium bromide ([3]; 0.5 mM nerolidol): ≤ 5 min | uptake of ethidium bromide (ethidium-conferred fluorescence) ([3]; 0.5 mM sesquiterpenoid, 40 minutes): facilitated the uptake of ethidium bromide | uptake of ethidium bromide (fluorescence, chromosomal staining) [4]: became more fluorescent

Source: patent publication US20020165130A1, “Method of sensitizing microbial cells to antimicrobial compounds” (priority 1998, published 2002)
